Laboratory results from patent publication US11166941B2, “Synergistic nutritional compositions for enhancing ATP efficiency” (CELAGENEX RESEARCH (INDIA) PVT. LTD., priority 2020, dated 2021).

Legend:
HepG2 cells = experiment: Estimation of cellular respiration by measuring cellular ATP levels (kit method) in HepG2 cells; assay type: cell-based, Human; conditions: for ATP enhancement fold / % ATP Enhancement: over control; for Cellular ATP Conc.: HepG2, 2 hours treatment
Experimental: The test substances were evaluated for their in vitro effect on cellular energy by measuring cellular ATP levels in human Hepatocytes (HepG2) cell line. In the given experimental conditions, treatment with the test substances improved cellular ATP levels in vitro [J Immunol Methods; 1986; 89: 271-277]; [Proc Nal Acad Sci USA; 2009; 106: 15651-15656].
For test substance ABC, the test substances were combined in the weight ratio of 1:0.05:0.01. A weight of about 10 mg of ABC was dissolved in 100 μl of DMSO and the volume was made up to 1 ml with DMEM-HG (Dulbecco's Modified Eagle Medium High Glucose). For individual test substances A, B and C, about 10 mg of all the test substances were weighed and separately dissolved with 100 μl of DMSO and volume was made up with DMEM-HG supplemented with 2% inactivated FBS to obtain a stock solution of 1 mg/ml concentration. The samples were further sterilized by 0.22 syringe filtration. Serial two-fold dilutions were prepared from the stock for carrying out further studies.
Cell line was cultured in DMEM-HG supplemented with 10% inactivated Fetal Bovine Serum (FBS), penicillin (100 IU/ml), streptomycin (100 μg/ml) and amphotericin B (5 μg/ml) in a humidified atmosphere of 5% CO2 at 37° C. until confluent. The cells were dissociated with TPVG solution (0.2% trypsin, 0.02% EDTA, 0.05% glucose in PBS). The stock cultures were grown in 25 cm^2 culture flasks and all experiments were carried out in 96 well microtitre plates (Tarsons India Pvt. Ltd., Kolkata, India).
HepG2 cells were trypsinized from stock culture flasks and the cell count was adjusted to 1.0×10^5 cells/ml to obtain a cell suspension that was seeded into a 6-well plate. After 24 hours, cell cultures achieved 70-80% confluency and were treated with different nontoxic concentrations of test substances. After 2 hours of treatment, the plate was washed with phosphate buffer saline. The cellular ATP level determination was performed according to the instructions given in the kit manual (SIGMA, #MAK190). At the end of the experiment, the optical density was read at 570 nm using microplate reader. From the absorbance values, the cellular ATP levels were estimated using kit protocol and the concentration of cellular ATP in treated groups were determined in comparison to the control groups.

[1] = tested on: HepG2 (Human Hepatocyte) cell line; experiment: In vitro cytotoxicity by MTT assay on HepG2 cell line; assay type: cell-based; conditions: 72 hours; for IC50 / inhibition at 62.5 µg/mL / inhibition at 125 µg/mL / inhibition at 250 µg/mL / inhibition at 500 µg/mL / inhibition at 1000 µg/mL: Homo sapiens; for IC50: read-out: CTC 50
Experimental: The in vitro cytotoxicity was performed on HepG2 (Human Hepatocyte) cell line to find a non-toxic concentration of the test substances by MTT assay and the potential of test substances to increase the cellular ATP levels was evaluated by kit method. For test substance ABC, the test substances were combined in the weight ratio of 1:0.05:0.01. A weight of about 10 mg of ABC was dissolved in 100 μl of DMSO and the volume was made up to 1 ml with DMEM-HG (Dulbecco's Modified Eagle Medium High Glucose). For individual test substances A, B and C, about 10 mg of all the test substances were weighed and separately dissolved with 100 μl of DMSO and volume was made up with DMEM-HG supplemented with 2% inactivated FBS to obtain a stock solution of 1 mg/ml concentration. The samples were further sterilized by 0.22 syringe filtration. Serial two-fold dilutions were prepared from the stock for carrying out further studies. Cell line was cultured in DMEM-HG supplemented with 10% inactivated Fetal Bovine Serum (FBS), penicillin (100 IU/ml), streptomycin (100 μg/ml) and amphotericin B (5 μg/ml) in a humidified atmosphere of 5% CO2 at 37° C. until confluent. The cells were dissociated with TPVG solution (0.2% trypsin, 0.02% EDTA, 0.05% glucose in PBS). The stock cultures were grown in 25 cm^2 culture flasks and all experiments were carried out in 96 well microtitre plates (Tarsons India Pvt. Ltd., Kolkata, India). The monolayer cell culture was trypsinized and the cell count was adjusted to 1.0×10^5 cells/ml using DMEM-HG containing 10% FBS. To each well of the 96 well microtitre plate, 0.1 ml of the diluted cell suspension was added. After 24 hours, when a partial monolayer was formed, the supernatant was flicked off, the monolayer was washed once with medium and 100 μl of different concentrations of test substances were added. The plate was then incubated at 37° C. for 72 hours in a 5% CO2 atmosphere, and microscopic examination was carried out with observations being noted at a 24-hour interval. After 72 hours of incubation, the drug solutions in the wells were discarded and 50 μl of MTT in PBS was added to each well. The plate was gently shaken and incubated for 3 hours at 37° C. in a 5% CO2 atmosphere. The supernatant was removed and 100 μl of 2-propanol was added and the plate was gently shaken to solubilize the formed formazan. The absorbance was measured using a microplate reader at a wavelength of 540 nm. The percentage growth inhibition was calculated using the standard formula. The concentration of test substances needed to inhibit the growth of the cell by 50% i.e., CTC50 values were generated from the dose-response curves.

[2] = cell studies, background statement; cited from earlier work
[3] = concentration inhibiting cell growth by 50%

Molecule | enhancement of cellular ATP levels over the control (in words) (HepG2 cells; HepG2, 500 μg/ml) | % ATP Enhancement (HepG2 cells; HepG2, 500 μg/ml) | ATP enhancement fold (HepG2 cells; HepG2, 500 μg/ml) | IC50 [1, 3] | inhibition at 62.5 µg/mL ([1]; test conc. 62.5 μg/ml) | inhibition at 125 µg/mL ([1]; test conc. 125 μg/ml) | inhibition at 250 µg/mL ([1]; test conc. 250 μg/ml) | inhibition at 500 µg/mL ([1]; test conc. 500 μg/ml) | inhibition at 1000 µg/mL ([1]; test conc. 1000 μg/ml) | other results
OO [Composition H2O2, H2O2, reference compound] |  |  |  |  |  |  |  |  |  | ATP enhancement fold (HepG2 cells; HepG2, 20 μM): 0.67 fold; Cellular ATP Conc. (HepG2 cells; 20 μM): 1.97 ± 0.45 mM
O=C(O)CCCC[C@@H]1SC[C@@H]2NC(=O)N[C@@H]21 [D-Biotin (B), Biotin] | No significant enhancement | 22% | 1.11 fold | > 1000 µg/mL | 6.13 ± 3.48% | 25.1 ± 0.81% | 31.2 ± 1.17% | 42.9 ± 1.29% | 47.6 ± 1.45% | Cellular ATP Conc. (HepG2 cells; 500 μg/ml, listed as B): 6.05 ± 0.33 mM; Cellular ATP Conc. (HepG2 cells; 500 μg/ml, listed as Biotin (B)): 6.05 ± 0.33 mM
Oc1ccc(C=Cc2cc(O)cc(O)c2)cc1 [Resveratrol, reference compound] |  |  |  |  |  |  |  |  |  | % ATP Enhancement (HepG2 cells; HepG2, 100 μg/ml): 13%; ATP enhancement fold (HepG2 cells; HepG2, 100 μg/ml): 1.09 fold; Cellular ATP Conc. (HepG2 cells; 100 μg/ml): 5.56 ± 0.37 mM
O=C(O)CC(=O)C(=O)O [Stabilized Oxaloacetate (A), Oxaloacetic acid] | No significant enhancement | 10% | 1.09 fold | > 1000 µg/mL | 10.7 ± 0.84% | 16.6 ± 0.82% | 23.8 ± 2.25% | 34.4 ± 2.2% | 40.4 ± 1.22% | Cellular ATP Conc. (HepG2 cells; 500 μg/ml): 5.42 ± 0.25 mM; Cellular ATP Conc. (HepG2 cells; 500 μg/ml, listed as Oxaloacetic acid (A)): 5.42 ± 0.25 mM
O=C(O)CC(=O)C(=O)O [oxaloacetate] |  |  |  |  |  |  |  |  |  | increase muscular endurance [2]: up to 10%
manganese (II) sulphate monohydrate [Manganese-Sulphate (C)] | No significant enhancement | 00% | 1.00 fold |  |  |  |  |  |  | Cellular ATP Conc. (HepG2 cells; 500 μg/ml, listed as C, sulphate monohydrate): 4.92 ± 0.13 mM; Cellular ATP Conc. (HepG2 cells; 500 μg/ml, listed as Manganese sulphate (C), sulphate monohydrate): 4.92 ± 0.13 mM; CTC 50 [1, 3]: 558.91 ± 6.22 µg/mL; % Inhibition ([1]; test conc. 62.5 μg/ml): 30.00 ± 0.54%; % Inhibition ([1]; test conc. 125 μg/ml): 35.54 ± 0.47%; % Inhibition ([1]; test conc. 250 μg/ml): 42.44 ± 0.81%; % Inhibition ([1]; test conc. 500 μg/ml): 48.75 ± 0.18%; % Inhibition ([1]; test conc. 1000 μg/ml): 59.35 ± 0.63%
